From publication PMC7736042, “Quinazolinones as Competitive Inhibitors of Carbonic Anhydrase-II (Human and Bovine): Synthesis, in-vitro, in-silico, Selectivity, and Kinetics Studies” (Frontiers in Chemistry, 2020)

Assays:
[1] = molecular target: bovine carbonic anhydrase-II (bCA-II) (Bos taurus, UniProt P00921); test: In-vitro bCA-II inhibition, spectrophotometric p-nitrophenyl acetate assay; assay type: biochemical; conditions: for IC50 / IC50 ± SEM: NA = Not active
Procedure: Each inhibitory well-consisted of 140 μL of HEPES-Tris buffer solution, 20 μL of bCA-II enzyme solution (0.1 mg/mL HEPES-Tris buffer), and 20 μL of test compound in HPLC grade DMSO (maintain 10% of the final concentration). […] Substrate p-nitrophenyl acetate (p-NPA) (0.7 mM) was prepared in HPLC grade methanol and the reaction was started by adding 20 μL to a well in a 96-well-plate. The amount of product formed was measured for 30 min continuously at 1 min intervals at 400 nm in a 96-well-plate using xMARK microplate spectrophotometer, Bio-Rad (USA). The activity of the controlled compound was taken as 100%. All experiments were carried out in triplicates of each used concentration, and results are represented as a mean of the triplicate.

[2] = molecular target: human carbonic anhydrase-II (hCA-II) (Homo sapiens, UniProt P00918); test: In-vitro hCA-II inhibition, spectrophotometric p-nitrophenyl acetate assay; assay type: biochemical; conditions: for selectivity hCA-II versus bCA-II: from in-vitro results on bCA-II and hCA-II; for IC50: NA = Not active
bCA-II = bCA-II (Bos taurus, UniProt P00921); test: Kinetics study on bCA-II (Lineweaver-Burk, secondary replot, Dixon plot); assay type: biochemical, bovine
Sequence of bCA-II (P00921 whole entry): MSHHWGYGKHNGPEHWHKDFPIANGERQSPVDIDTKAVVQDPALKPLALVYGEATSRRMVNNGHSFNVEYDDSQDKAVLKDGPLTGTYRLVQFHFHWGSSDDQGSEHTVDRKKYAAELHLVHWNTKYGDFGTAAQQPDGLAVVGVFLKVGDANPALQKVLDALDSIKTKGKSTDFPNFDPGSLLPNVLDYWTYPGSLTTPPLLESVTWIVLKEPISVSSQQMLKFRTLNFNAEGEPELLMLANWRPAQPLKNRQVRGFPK
Procedure: (§1) To investigate the mechanism of action of these compounds, kinetics studies were performed. The kinetics studies were used to discover the type of inhibition and dissociation constant (Ki). […] From the kinetics studies, it was deduced that the compound 4d is a competitive inhibitor for both bCA-II and hCA-II. The Lineweaver-Burk plots were used for determination of the type of inhibition, in which the reciprocal of substrate concentrations was plotted against the reciprocal of the rate of the reaction to monitor the effect of the inhibitor on both Km and Vmax. […] In competitive inhibition, the Km of enzyme increased, while Vmax are not affected.
(§2) Figure 2 The mode of inhibition of bCA-II by compound 4d. […] (B) Secondary re-plot of Lineweaver–Burk plot between the slopes of each line on Lineweaver–Burk plot vs. different concentrations of compound 4d. (C) Dixon plot of reciprocal rate of reaction (velocities) vs. different concentrations of compound 4d.
(§3) The Ki values of compounds 4d for both enzymes bCA-II and hCA-II were deduced by secondary replots of Lineweaver-Burk plots by plotting the slope of each line in the Lineweaver-Burk plots against different concentrations of compound 4d (Figures 2B, 3B). The Ki values were confirmed by Dixon plot after plotting the reciprocal of the rate of reaction against different concentrations of compound 4d (Figures 2C, 3C).

hCA-II = hCA-II (Homo sapiens, UniProt P00918); test: Kinetics study on hCA-II (Lineweaver-Burk, secondary replot, Dixon plot); assay type: biochemical
Procedure: as §1
as §2, with “3” for “2”, “hCA-II” for “bCA-II”
as §3

[3] = substrate p-nitrophenyl acetate

Sequence of bovine carbonic anhydrase-II (bCA-II) (P00921 whole entry): as above

inhibition at 500 µM ([1]; 0.5 mM) | IC50 [1] | selectivity hCA-II versus bCA-II [2] | inhibition at 500 µM ([2]; hCA-II, 0.5 mM) | IC50 ([2]; hCA-II) | melting point | mode of inhibition (bCA-II; Lineweaver-Burk plot) | Ki (bCA-II; [3]) | mode of inhibition (hCA-II; Lineweaver-Burk plot) | Ki (hCA-II; [3]) | IC50 ± SEM [1] | % Inhibition (0.5 mM) ([1]; 0.5 mM) | % Inhibition (0.5 mM) ([2]; hCA-II, 0.5 mM) | Molecule
78.6% | 46.6 ± 0.39 µM |  | 28.1% |  | 164 to 165 °C |  |  |  |  |  |  |  | Nn1c(-c2cccc(F)c2)nc2ccccc2c1=O [Compound 4j, 3-Amino-2-(3-Fluorophenyl) Quinazolin-4(3H)-one]
75.2% | 53.6 ± 0.85 µM |  | 75.2% | 59.6 ± 1.03 µM | 200 to 202 °C |  |  |  |  |  |  |  | Nn1c(-c2ccccc2)nc2ccccc2c1=O [Compound 4a, 3-Amino-2-Phenylquinazolin-4(3H)-one]
92.4% | 38 ± 0.62 µM |  | 92.4% | 53 ± 2.12 µM | 294 to 296 °C |  |  |  |  |  |  |  | Cc1ccc(-c2nc3ccccc3c(=O)n2N)cc1 [Compound 4h, 3-Amino-2-(4-Methylphenyl) Quinazolin-4(3H)-one]
60% | 8.9 ± 0.31 µM |  | 30.5% |  | 144 to 145 °C |  |  |  |  |  |  |  | Nn1c(-c2cccc(Cl)c2)nc2ccccc2c1=O [Compound 4m, 3-Amino-2-(3-Chlorophenyl) Quinazolin-4(3H)-one]
17.6% |  |  | 27.8% |  | 169 to 170 °C |  |  |  |  | inactive |  |  | Nn1c(-c2ccccc2F)nc2ccccc2c1=O [Compound 4i, 3-Amino-2-(2-Fluorophenyl) Quinazolin-4(3H)-one]

Further lines, the molecule ahead of its results:

Molecule | inhibition at 500 µM ([1]; 0.5 mM) | IC50 [1] | selectivity hCA-II versus bCA-II [2] | inhibition at 500 µM ([2]; hCA-II, 0.5 mM) | IC50 ([2]; hCA-II) | melting point | mode of inhibition (bCA-II; Lineweaver-Burk plot) | Ki (bCA-II; [3]) | mode of inhibition (hCA-II; Lineweaver-Burk plot) | Ki (hCA-II; [3]) | IC50 ± SEM [1] | % Inhibition (0.5 mM) ([1]; 0.5 mM) | % Inhibition (0.5 mM) ([2]; hCA-II, 0.5 mM)
Nn1c(-c2ccc(Br)cc2)nc2ccccc2c1=O [Compound 4g, 3-Amino-2-(4-Bromophenyl) Quinazolin-4(3H)-one] | 85.3% | 33.6 ± 0.22 µM | more selective inhibitors for hCA-II | 85.3% | 14 ± 0.6 µM | 184 to 185 °C |  |  |  |  |  |  | 
Nn1c(-c2cccc([N+](=O)[O-])c2)nc2ccccc2c1=O [Compound 4d, 3-Amino-2-(3-Nitrophenyl) Quinazolin-4(3H)-one] | 92.9% | 19.7 ± 1.02 µM |  | 94.2% | 21.5 ± 0.52 µM | 206 to 208 °C | competitive | 13 ± 0.013 µM | competitive | 14.25 ± 0.017 µM |  |  | 
Nn1c(-c2ccc(F)cc2)nc2ccccc2c1=O [Compound 4k, 3-Amino-2-(4-Fluorophenyl) Quinazolin-4(3H)-one] | 76.3% | 18.3 ± 0.51 µM |  | 36.2% |  | 176 to 178 °C |  |  |  |  |  |  | 
3-Amino-2-(Napthalen-1-yl) Quinazolin-4(3H)-one [Compound 4b] |  | 67.3 ± 0.42 µM |  |  |  |  |  |  |  |  |  | 83.6% | 38.1%
Nn1c(-c2ccc(Cl)cc2)nc2ccccc2c1=O [Compound 4n, 3-Amino-2-(4-Chlorophenyl) Quinazolin-4(3H)-one] | 54.2% | 28.2 ± 0.01 µM |  | 24.3% |  | 165 to 166 °C |  |  |  |  |  |  | 
Nn1c(-c2ccc([N+](=O)[O-])cc2)nc2ccccc2c1=O [Compound 4e, 3-Amino-2-(4-nitrophenyl) quinazolin-4(3H)-one] | 80.7% | 9.1 ± 0.21 µM |  | 92.7% | 39.9 ± 2.21 µM | 224 to 225 °C |  |  |  |  |  |  | 
COc1cc(-c2nc3ccccc3c(=O)n2N)cc(OC)c1OC [Compound 4p, 3-Amino-2-(3,4,5-Trimethoxyphenyl) Quinazolin-4(3H)-one] | 87.3% | 26.8 ± 0.23 µM |  | 27.4% |  |  |  |  |  |  |  |  | 
COc1ccc(-c2nc3ccccc3c(=O)n2N)cc1 [Compound 4o, 3-Amino-2-(4-Methoxyphenyl) Quinazolin-4(3H)-one] | 19.9% |  | more selective inhibitors for hCA-II | 89.4% | 22 ± 0.4 µM |  |  |  |  |  | inactive |  | 
Nn1c(-c2ccccc2Cl)nc2ccccc2c1=O [Compound 4l, 3-Amino-2-(2-Chlorophenyl) Quinazolin-4(3H)-one] | 78.2% | 10.7 ± 0.82 µM |  | 28.7% |  | 160 to 162 °C |  |  |  |  |  |  | 
Nn1c(-c2ccccc2[N+](=O)[O-])nc2ccccc2c1=O [Compound 4c, 3-Amino-2-(2-Nitrophenyl) Quinazolin-4(3H)-one] | 80.5% | 11.7 ± 0.36 µM |  | 88.5% | 21.1 ± 1.36 µM | 180 to 182 °C |  |  |  |  |  |  | 
Nn1c(-c2ccccc2Br)nc2ccccc2c1=O [Compound 4f, 3-Amino-2-(2-Bromophenyl) Quinazolin-4(3H)-one] | 88.9% | 17.9 ± 0.56 µM |  | 98.9% | 43.5 ± 1.51 µM | 204 to 206 °C |  |  |  |  |  |  | 
